Consider one molecule from article PMC6154679, “Nine Different Chemical Species and Action Mechanisms of Pancreatic Lipase Ligands Screened Out from Forsythia suspensa Leaves All at One Time” (Molecules : A Journal of Synthetic Chemistry and Natural …, 2017).

The target in the test is T1, pancreatic lipase (PL) (Sus scrofa, UniProt P00591).
T1 construct: gene PNLIP
T1 sequence (P00591 1-450): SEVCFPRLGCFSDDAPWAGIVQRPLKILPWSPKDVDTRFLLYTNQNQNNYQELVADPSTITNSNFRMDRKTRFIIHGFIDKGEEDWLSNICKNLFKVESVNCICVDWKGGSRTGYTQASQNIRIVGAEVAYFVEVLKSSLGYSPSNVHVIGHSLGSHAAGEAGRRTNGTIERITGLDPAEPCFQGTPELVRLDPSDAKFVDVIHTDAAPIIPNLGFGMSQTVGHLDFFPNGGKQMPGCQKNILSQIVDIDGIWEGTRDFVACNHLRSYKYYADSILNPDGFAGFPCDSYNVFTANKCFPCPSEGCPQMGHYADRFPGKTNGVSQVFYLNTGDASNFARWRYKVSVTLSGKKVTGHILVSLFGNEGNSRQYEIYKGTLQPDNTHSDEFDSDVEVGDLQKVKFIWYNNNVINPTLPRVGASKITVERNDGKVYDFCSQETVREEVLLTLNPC
As to the kind of experiment: pNPB hydrolysis assay, inhibition rate at […]. It counts as biochemical. Conditions: read-out: % inhibition at 5 μg/mL.

For `CCCCCCCCCCC[C@@H](C[C@@H]1OC(=O)[C@H]1CCCCCC)OC(=O)[C@H](CC(C)C)NC=O` [Orlistat], the inhibition at 5 µg/mL is 58%.
